pIC50: −log10 of the molar value. Activity calls are given as the source filed them. The calls are words filed in the database; no cut-off is given here.
What was measured:
BEL-7404 tumor cell line [1] = assay: Induction of apoptosis in human Bel7404 cells assessed as increase in Bax protein expression at 60 uM at 36 hrs by Western blot analysis relative to control; format: functional
BEL-7404 tumor cell line [2] = assay: Induction of apoptosis in human Bel7404 cells assessed as increase in Bax protein expression at 60 uM at 24 hrs by Western blot analysis relative to control; format: functional
BEL-7404 tumor cell line [3] = assay: Induction of apoptosis in human Bel7404 cells assessed as increase in Bax protein expression at 60 uM at 12 hrs by Western blot analysis relative to control; format: functional
[4] = Cytotoxicity against human HL60 cells after 72 hrs by MTT assay; format: functional, cell-based; conditions: HL-60, 72 h
K562 = assay: Cytotoxicity against human K562 cells after 72 hrs by MTT assay; format: functional, cell-based; conditions: K562, 72 h
[5] = Cytotoxicity against human Bel7404 cells after 72 hrs by MTT assay; format: functional, cell-based; conditions: BEL-7404, 72 h
MDA-MB-231 = assay: Cytotoxicity against human MDA-MB-231 cells after 72 hrs by MTT assay; format: functional, cell-based; conditions: MDA-MB-231, 72 h
[6] = Cytotoxicity against human L02 cells at 20 to 160 uM after 72 hrs by MTT assay; format: cell-based; conditions: l02, 72 h
BEL-7404 tumor cell line [7] = assay: Induction of apoptosis in human Bel7404 cells assessed as nuclear condensation at 60 uM after 48 hrs using Hoechst staining by fluorescence microscopy; format: functional, cell-based
BEL-7404 tumor cell line [8] = assay: Induction of apoptosis in human Bel7404 cells assessed as membrane blebbing at 60 uM after 48 hrs using Hoechst staining by fluorescence microscopy; format: functional, cell-based
BEL-7404 tumor cell line [9] = assay: Induction of apoptosis in human Bel7404 cells assessed as nuclear shrinking at 60 uM after 48 hrs using Hoechst staining by fluorescence microscopy; format: functional, cell-based
BEL-7404 tumor cell line [10] = assay: Induction of apoptosis in human Bel7404 cells assessed as apoptotic bodies at 60 uM after 48 hrs using Hoechst staining by fluorescence microscopy; format: functional, cell-based
BEL-7404 tumor cell line [11] = assay: Induction of apoptosis in human Bel7404 cells assessed as reduction in Bcl2 protein expression at 60 uM at 12 hrs by Western blot analysis relative to control; format: functional
BEL-7404 tumor cell line [12] = assay: Induction of apoptosis in human Bel7404 cells assessed as reduction in Bcl2 protein expression at 60 uM at 24 hrs by Western blot analysis relative to control; format: functional
BEL-7404 tumor cell line [13] = assay: Induction of apoptosis in human Bel7404 cells assessed as reduction in Bcl2 protein expression at 60 uM at 36 hrs by Western blot analysis relative to control; format: functional
BEL-7404 tumor cell line [14] = assay: Induction of apoptosis in human Bel7404 cells assessed as reduction in Bcl2 protein expression at 60 uM at 48 hrs by Western blot analysis relative to control; format: functional
BEL-7404 tumor cell line [15] = assay: Induction of apoptosis in human Bel7404 cells assessed as increase in cytochrome c protein level at 60 uM at 12 hrs by Western blot analysis relative to control; format: functional
BEL-7404 tumor cell line [16] = assay: Induction of apoptosis in human Bel7404 cells assessed as increase in cytochrome c protein level at 60 uM at 24 hrs by Western blot analysis relative to control; format: functional
BEL-7404 tumor cell line [17] = assay: Induction of apoptosis in human Bel7404 cells assessed as increase in cytochrome c protein level at 60 uM at 36 hrs by Western blot analysis relative to control; format: functional
BEL-7404 tumor cell line [18] = assay: Induction of apoptosis in human Bel7404 cells assessed as increase in cytochrome c protein level at 60 uM at 48 hrs by Western blot analysis relative to control; format: functional
BEL-7404 tumor cell line [19] = assay: Induction of apoptosis in human Bel7404 cells assessed as increase in procaspase 9 protein level at 60 uM at 24 hrs by Western blot analysis relative to control; format: functional
BEL-7404 tumor cell line [20] = assay: Induction of apoptosis in human Bel7404 cells assessed as increase in procaspase 9 protein level at 60 uM at 36 hrs by Western blot analysis relative to control; format: functional
BEL-7404 tumor cell line [21] = assay: Induction of apoptosis in human Bel7404 cells assessed as increase in procaspase 9 protein level at 60 uM at 48 hrs by Western blot analysis relative to control; format: functional
BEL-7404 tumor cell line [22] = assay: Induction of apoptosis in human Bel7404 cells assessed as decrease in procaspase 3 protein level at 60 uM at 12 hrs by Western blot analysis relative to control; format: functional
BEL-7404 tumor cell line [23] = assay: Induction of apoptosis in human Bel7404 cells assessed as decrease in procaspase 3 protein level at 60 uM at 24 hrs by Western blot analysis relative to control; format: functional
BEL-7404 tumor cell line [24] = assay: Induction of apoptosis in human Bel7404 cells assessed as decrease in procaspase 3 protein level at 60 uM at 36 hrs by Western blot analysis relative to control; format: functional
BEL-7404 tumor cell line [25] = assay: Induction of apoptosis in human Bel7404 cells assessed as decrease in procaspase 3 protein level at 60 uM at 48 hrs by Western blot analysis relative to control; format: functional
[26] = Cell cycle arrest in human Bel7404 cells assessed as accumulation at G0/G1 phase at 20 uM after 24 hrs by PI-based flow cytometry ( Rvb = 56.50 % ); format: functional; conditions: BEL-7404
[27] = Cell cycle arrest in human Bel7404 cells assessed as accumulation at G0/G1 phase at 40 uM after 24 hrs by PI-based flow cytometry ( Rvb = 56.50 % ); format: functional; conditions: BEL-7404
[28] = Cell cycle arrest in human Bel7404 cells assessed as accumulation at G0/G1 phase at 60 uM after 24 hrs by PI-based flow cytometry ( Rvb = 56.50 % ); format: functional; conditions: BEL-7404
[29] = Cell cycle arrest in human Bel7404 cells assessed as accumulation at S phase at 20 uM after 24 hrs by PI-based flow cytometry ( Rvb = 43.38 % ); format: functional; conditions: BEL-7404
[30] = Cell cycle arrest in human Bel7404 cells assessed as accumulation at S phase at 40 uM after 24 hrs by PI-based flow cytometry ( Rvb = 43.38 % ); format: functional; conditions: BEL-7404
[31] = Cell cycle arrest in human Bel7404 cells assessed as accumulation at S phase at 60 uM after 24 hrs by PI-based flow cytometry ( Rvb = 43.38 % ); format: functional; conditions: BEL-7404
[32] = Cell cycle arrest in human Bel7404 cells assessed as accumulation at G2/M phase at 20 uM after 24 hrs by PI-based flow cytometry ( Rvb = 0.11 % ); format: functional; conditions: BEL-7404
[33] = Cell cycle arrest in human Bel7404 cells assessed as accumulation at G2/M phase at 40 uM after 24 hrs by PI-based flow cytometry ( Rvb = 0.11 % ); format: functional; conditions: BEL-7404
[34] = Cell cycle arrest in human Bel7404 cells assessed as accumulation at G2/M phase at 60 uM after 24 hrs by PI-based flow cytometry ( Rvb = 0.11 % ); format: functional; conditions: BEL-7404
[35] = Cell cycle arrest in human Bel7404 cells assessed as increase in G0/G1 phase after 24 hrs by PI-based flow cytometry; format: functional; conditions: BEL-7404
[36] = Cell cycle arrest in human Bel7404 cells assessed as decrease in G2/M phase after 24 hrs by PI-based flow cytometry; format: functional; conditions: BEL-7404
BEL-7404 tumor cell line [37] = assay: Induction of apoptosis in human Bel7404 cells assessed as increase in procaspase 9 protein level at 60 uM at 12 hrs by Western blot analysis relative to control; format: functional
[38] = Cell cycle arrest in human Bel7404 cells assessed as decrease in S phase after 24 hrs by PI-based flow cytometry; format: functional; conditions: BEL-7404
BEL-7404 tumor cell line [39] = assay: Induction of apoptosis in human Bel7404 cells assessed as increase in Bax protein expression at 60 uM at 48 hrs by Western blot analysis relative to control; format: functional

**Q.** With CC1(C)CC[C@]2(C(=O)O)CC[C@]3(C)C(=CC[C@@H]4[C@@]5(C)Cc6cnc(N)nc6C(C)(C)[C@@H]5CC[C@]43C)[C@@H]2C1 as the molecule, how does the “fold change (FC)” value (BEL-7404 tumor cell line [1]) read?
**A.** 7.6

**Q.** And the “fold change (FC)” value (BEL-7404 tumor cell line [2])?
**A.** 1.5

**Q.** What about the “fold change (FC)” value (BEL-7404 tumor cell line [3]) of the same molecule?
**A.** 1.5

**Q.** And the pIC50 [4]?
**A.** 4.37

**Q.** What about the pIC50 (K562) of the same molecule?
**A.** 4.41

**Q.** What about the pIC50 [5] of the same molecule?
**A.** 4.46

**Q.** What about the pIC50 (MDA-MB-231) of the same molecule?
**A.** 4.35

**Q.** What about the Activity [6] of the same molecule?
**A.** Non-toxic

**Q.** What about the Activity (BEL-7404 tumor cell line [7]) of the same molecule?
**A.** Active

**Q.** What about the Activity (BEL-7404 tumor cell line [8]) of the same molecule?
**A.** Active

**Q.** What about the Activity (BEL-7404 tumor cell line [9]) of the same molecule?
**A.** Active

**Q.** What about the Activity (BEL-7404 tumor cell line [10]) of the same molecule?
**A.** Active

**Q.** What about the “fold change (FC)” value (BEL-7404 tumor cell line [11]) of the same molecule?
**A.** 1

**Q.** And the “fold change (FC)” value (BEL-7404 tumor cell line [12])?
**A.** 0.5

**Q.** What about the “fold change (FC)” value (BEL-7404 tumor cell line [13]) of the same molecule?
**A.** 0.4

**Q.** What about the “fold change (FC)” value (BEL-7404 tumor cell line [14]) of the same molecule?
**A.** 0.4

**Q.** What about the “fold change (FC)” value (BEL-7404 tumor cell line [15]) of the same molecule?
**A.** 1.3

**Q.** What about the “fold change (FC)” value (BEL-7404 tumor cell line [16]) of the same molecule?
**A.** 2.6

**Q.** And the “fold change (FC)” value (BEL-7404 tumor cell line [17])?
**A.** 2.7

**Q.** And the “fold change (FC)” value (BEL-7404 tumor cell line [18])?
**A.** 7

**Q.** And the “fold change (FC)” value (BEL-7404 tumor cell line [19])?
**A.** 0.6

**Q.** What about the “fold change (FC)” value (BEL-7404 tumor cell line [20]) of the same molecule?
**A.** 0.2

**Q.** And the “fold change (FC)” value (BEL-7404 tumor cell line [21])?
**A.** 0.1

**Q.** What about the “fold change (FC)” value (BEL-7404 tumor cell line [22]) of the same molecule?
**A.** 0.8

**Q.** What about the “fold change (FC)” value (BEL-7404 tumor cell line [23]) of the same molecule?
**A.** 0.6

**Q.** What about the “fold change (FC)” value (BEL-7404 tumor cell line [24]) of the same molecule?
**A.** 0.4

**Q.** What about the “fold change (FC)” value (BEL-7404 tumor cell line [25]) of the same molecule?
**A.** 0.1

**Q.** What about the Activity [26] of the same molecule?
**A.** 58.4%

**Q.** What about the Activity [27] of the same molecule?
**A.** 62.9%

**Q.** What about the Activity [28] of the same molecule?
**A.** 73%

**Q.** And the Activity [29]?
**A.** 41.6%

**Q.** What about the Activity [30] of the same molecule?
**A.** 37.1%

**Q.** What about the Activity [31] of the same molecule?
**A.** 27%

**Q.** And the Activity [32]?
**A.** 0%

**Q.** What about the Activity [33] of the same molecule?
**A.** 0%

**Q.** What about the Activity [34] of the same molecule?
**A.** 0%

**Q.** And the Activity [35]?
**A.** Dose-dependent effect

**Q.** And the Activity [36]?
**A.** Dose-dependent effect

**Q.** What about the “fold change (FC)” value (BEL-7404 tumor cell line [37]) of the same molecule?
**A.** 0.7

**Q.** And the Activity [38]?
**A.** Dose-dependent effect

**Q.** And the “fold change (FC)” value (BEL-7404 tumor cell line [39])?
**A.** 7.7

**Q.** With CC1(C)CC[C@]2(C(=O)O)CC[C@]3(C)C(=CC[C@@H]4[C@@]5(C)CC[C@H](O)C(C)(C)[C@@H]5CC[C@]43C)[C@@H]2C1 [OLEANOLIC_ACID] as the molecule, how does the pIC50 [4] read?
**A.** 4.26

**Q.** And the pIC50 (K562)?
**A.** 4.24

**Q.** And the pIC50 [5]?
**A.** 4.24

**Q.** What about the pIC50 (MDA-MB-231) of the same molecule?
**A.** 4.17

**Q.** Which results are given for CC1(C)CC[C@]2(C(=O)O)CC[C@]3(C)C(=CC[C@@H]4[C@@]5(C)Cc6cnoc6C(C)(C)[C@@H]5CC[C@]43C)[C@@H]2C1?
**A.** pIC50 [4]: 4.38; pIC50 (K562): 4.94; pIC50 [5]: 4.44; pIC50 (MDA-MB-231): 4.27

**Q.** With CC(=O)n1nc2c(n1)C(C)(C)[C@@H]1CC[C@]3(C)[C@H](CC=C4[C@@H]5CC(C)(C)CC[C@]5(C(=O)O)CC[C@]43C)[C@@]1(C)C2 as the molecule, how does the pIC50 [4] read?
**A.** 4.12

**Q.** And the pIC50 (K562)?
**A.** 4.17

**Q.** What about the pIC50 [5] of the same molecule?
**A.** 4.35

**Q.** What about the pIC50 (MDA-MB-231) of the same molecule?
**A.** 4.21

**Q.** With CC1(C)CC[C@]2(C(=O)O)CC[C@]3(C)C(=CC[C@@H]4[C@@]5(C)Cc6nonc6C(C)(C)[C@@H]5CC[C@]43C)[C@@H]2C1 as the molecule, how does the pIC50 [4] read?
**A.** 4.34

**Q.** What about the pIC50 (K562) of the same molecule?
**A.** 4.30

**Q.** What about the pIC50 [5] of the same molecule?
**A.** 4.51

**Q.** What about the pIC50 (MDA-MB-231) of the same molecule?
**A.** 4.27
